Measured values reported in patent US9469652B2, “ERK inhibitors” (Eli Lilly and Company, priority 2014, dated 2016).

Columns and labels:
[1] = system: human non-small cell lung cancer cells A549 (KRAS_G12S); test: In vivo combination study, A549 NSCLC xenograft model; design: species or system female CB-17 SCID mice; details: single agent
Protocol: (§1) More specifically, the compound of Example 1 is tested in combination with either the pan-RAF inhibitor compound or the CDK4/6 inhibitor compound in HCT116, a KRAS mutant colorectal cancer xenograft model. Also, the compound of Example 1 is tested in combination with either the CDK4/6 inhibitor compound or DC101 in NCI-H441, A549, and NCI-H2122, KRAS mutant non-small cell lung cancer (NSCLC) xenograft models.
(§2) Combination efficacy is also tested in three KRAS mutant NSCLC xenograft models including A549 (KRAS_G12S) in SCID mice as well as NCI-H441 (KRAS_G12V) and NCI-H2122 (KRAS_G12C) in athymic nude mice. Expand human non-small cell lung cancer cells NCI-H441 (ATCC, #CRL-5807) and NCI-H2122 (ATCC, #CRL-5985) in culture, harvest and inject 5×10e^6 cells in 200 μL of 1:1 HBSS+matrigel solution subcutaneously on to the rear right flank of female athymic nude mice (20-22 gm, Harlan Laboratories). Expand human non-small cell lung cancer cells A549 (ATCC, #CC1-185) in culture, harvest and inject 5×10e^6 cells in 200 μL of 1:1 HBSS+matrigel solution subcutaneously on to the rear right flank of female CB-17 SCID mice (18-20 gm, Taconic Farms). For all cell lines, measure tumor growth and body weight twice per week beginning the seventh day after the implantation. When average tumor sizes reach 200-300 mm^3, randomize animals and group into groups of five to seven animals. Prepare test compound in an appropriate vehicle (see below) and administer by oral gavage (compound of Example 1 and the CDK4/6 inhibitor compound) or intraperitoneally (DC101) for 21 to 28 days. Tumor response is determined by tumor volume measurement performed twice a week during the course of treatment. Vehicle used in these studies is 1% HEC/0.25% Tween® 80/0.05% Antifoam. The compound of Example 1 is formulated in 1% HEC/0.25% Tween® 80/0.05% Antifoam and the CDK4/6 inhibitor compound is formulated in 1% HEC in 25 mM sodium phosphate buffer, pH 2. […] In the same NCI-H441 xenograft model, DC101 in phosphate buffer is also administered intraperitoneally twice per week (BIW) as a single agent or in combination with the compound of Example 1, 50 mpk, QD for 28 days.

[2] = system: human pancreatic cancer cells MIA PACA-2; test: Xenograft tumor model MIA PACA-2; format: in vivo, female athymic nude mice; details: oral gavage; for Delta T/C % or Regr %: negative = regression
Protocol: (§3) The purpose of this assay is to measure reduction in tumor volume in response to test compound administration. Expand human colorectal cancer cells HCT116 (ATCC, # CCL-247) in culture, harvest and inject 5×10e^6 cells in 200 μL of 1:1 HBSS+matrigel solution subcutaneously on to the rear right flank of female athymic nude mice (22-25 g, Harlan Laboratories). Expand human pancreatic cancer cells MIA PACA-2 (ATCC, # CRL-1420) or human non-small cell lung cancer cells CALU-6 (ATCC, #HTB-56) or human colorectal cancer cells COLO-205 (ATCC, #CCL-222) in culture, harvest and inject 5×10e^6 cells in 200 μL of 1:1 HBSS+matrigel solution subcutaneously on to the rear right flank of female athymic nude mice (22-25 g, Harlan Laboratories). Measure tumor growth and body weight twice per week beginning the seventh day after the implantation. When tumor sizes reach 200-400 mm^3, randomize animals and group into groups of eight to ten animals. Prepare test compound in an appropriate vehicle (vehicle: 1% HEC/0.25% Tween 80/0.05% Antifoam) and administer by oral gavage for 14 to 21 days. Tumor response is determined by tumor volume measurement performed twice a week during the course of treatment. Body weight is taken as a general measure of toxicity.
(§4) A compound within the scope of invention is tested in this assay run substantially as above.

[3] = system: human non-small cell lung cancer cells CALU-6; test: Xenograft tumor model CALU-6; format: in vivo, female athymic nude mice; details: oral gavage; for Delta T/C % or Regr %: negative = regression
Protocol: as §3, §4

[4] = system: human non-small cell lung cancer cells NCI-H441 (KRAS_G12V); test: In vivo combination study, NCI-H441 NSCLC xenograft model; details: single agent
Protocol: as §1, §2

[5] = system: human colorectal cancer cells HCT116; test: Xenograft tumor model HCT116; format: in vivo, female athymic nude mice; details: oral gavage; for Delta T/C % or Regr %: negative = regression
Protocol: as §3, §4

Cn1nccc1Nc1nccc(-c2cc3c(s2)C(C)(C)N(CCN2CCOCC2)C3=O)n1 [Example 1, 6,6-Dimethyl-2-{2-[(1-methyl-1H-pyrazol-5-yl)amino]pyrimidin-4-yl}-5-[2-(morpholin-4-yl)ethyl]-5,6-dihydro-4H-thieno[2,3-c]pyrrol-4-one] was tested, and the “Delta T/C %” value ([1]; 50 mg/kg QD, oral, 28 days) was 9%, the tumor growth inhibition ([1]; 50 mpk) was 91% and the TGI % ([2]; 12.5 mg/kg QD) was 68%. For the same compound, the “Delta T/C % or Regr %” value ([2]; 12.5 mg/kg QD) was 32%, the TGI % ([2]; 25 mg/kg QD) was 98% and the “Delta T/C % or Regr %” value ([2]; 25 mg/kg QD) was 2%. For the same compound, the TGI % ([2]; 50 mg/kg QD) was 122%, the “Delta T/C % or Regr %” value ([2]; 50 mg/kg QD) was −22% and the TGI % ([2]; 100 mg/kg QD) was 166%. The “Delta T/C % or Regr %” value ([2]; 100 mg/kg QD) was −66%, the TGI % ([3]; 12.5 mg/kg QD) was 78% and the “Delta T/C % or Regr %” value ([3]; 12.5 mg/kg QD) was 22%. For the same compound, the TGI % ([3]; 25 mg/kg QD) was 86%, the “Delta T/C % or Regr %” value ([3]; 25 mg/kg QD) was 14% and the TGI % ([3]; 50 mg/kg QD) was 131%. For the same compound, the “Delta T/C % or Regr %” value ([3]; 50 mg/kg QD) was −31%, the TGI % ([3]; 100 mg/kg QD) was 177% and the “Delta T/C % or Regr %” value ([3]; 100 mg/kg QD) was −77%. The Regression % ([4]; 50 mg/kg QD, oral, 28 days) was 1%, the tumor growth inhibition ([4]; 50 mpk) was 101% and the TGI % ([5]; 25 mg/kg QD) was 108%. The “Delta T/C % or Regr %” value ([5]; 25 mg/kg QD) was −8%, the TGI % ([5]; 50 mg/kg QD) was 89% and the “Delta T/C % or Regr %” value ([5]; 50 mg/kg QD) was 11%. The TGI % ([5]; 100 mg/kg QD) was 125% and the “Delta T/C % or Regr %” value ([5]; 100 mg/kg QD) was −25%.
